According to patent US20250154138A1, “Small Molecule IL-17A Modulators” (BeiGene, Ltd., priority 2022, published 2025):

Columns and labels:
[1] = system: IL-17-induced GROα secretion from HT-29 cells; assay: GROα release assay in human colorectal adenocarcinoma epithelial cell (HT-29, ELISA); type: cell-based; conditions: Homo sapiens, HT-29, 48 h, 10 ng/mL IL-17A, highest concentration 10 μM, read-out: Cellular assay HT29 cell/CXCL1 IC50
Summary of the method: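 HT-29 cells were exposed 48 h at 37°C to IL-17A (final 10 ng/mL) preincubated 15 min with compound (4-fold dilutions, top 10 μM). Secreted GROα was quantified by ELISA against a standard curve, and IC50 obtained by four-parameter fitting.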

[2] = target: human IL-17A / human IL-17RA (Homo sapiens (Human), UniProt Q16552); assay: Human IL-17A biochemical assay (HTRF, blocking of IL-17A binding to IL-17RA); conditions: 0.4 nM IL-17A, 0.3 nM IL-17RA, max compound concentration 10 uM
Chain of human IL-17A / human IL-17RA (Q16552 24-155): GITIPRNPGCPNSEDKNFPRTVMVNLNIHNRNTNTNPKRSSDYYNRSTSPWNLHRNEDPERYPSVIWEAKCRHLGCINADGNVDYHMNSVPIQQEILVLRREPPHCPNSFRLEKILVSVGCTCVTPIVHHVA
Summary of the method: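 HTRF competition: 0.4 nM recombinant human IL-17A pre-incubated 3 h at room temperature with compound (top 10 uM, 2.7-fold, 10 points) in HEPES pH 7.5 buffer, then 0.3 nM IL-17RA added for 1 h, then anti-6His-Tb/anti-human IgG-XL665 detection for 1 h.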

Structure (SMILES)	IC50 [1] [nM]	IC50 [2] [nM]
CNC(=O)C1(N2CC3(CC3)CNC2=O)Cc2ccc(NC(=O)[C@@H](NC(=O)c3c(F)cnn3C)C3CCCCC3)cc2C1 (stereo partly drawn) [Example 167, N-((1S)-1-cyclohexyl-2-((2-(methylcarbamoyl)-2-(6-oxo-5,7-diazaspiro[2.5]octan-5-yl)-2,3-dihydro-1H-inden-5-yl)amino)-2-oxoethyl)-4-fluoro-1-methyl-1H-pyrazole-5-carboxamide]	220	127
[2H]C([2H])([2H])NC(=O)C1(N2C[C@@H](C(C)C)NC2=O)Cc2ccc(NC(=O)[C@@H](NC(=O)c3ccnn3C)C3CCCCCC3)cc2C1 (stereo partly drawn) [Example 82, N-((1S)-1-cycloheptyl-2-((2-((R)-4-isopropyl-2-oxoimidazolidin-1-yl)-2-((methyl-d3)carbamoyl)-2,3-dihydro-1H-inden-5-yl)amino)-2-oxoethyl)-1-methyl-1H-pyrazole-5-carboxamide]	156	32
CC(C)n1nccc1C(=O)N[C@H](C(=O)Nc1ccc2c(c1)CC(N1C[C@@H](C(F)(F)F)NC1=O)C2)C1CCCCC1 (stereo partly drawn) [Example 195, N-((1S)-1-cyclohexyl-2-oxo-2-((2-((S)-2-oxo-4-(trifluoromethyl)imidazolidin-1-yl)-2,3-dihydro-1H-inden-5-yl)amino)ethyl)-1-isopropyl-1H-pyrazole-5-carboxamide]	383	128
CC(C)[C@@H]1CC(C2Cc3ccc(NC(=O)[C@@H](NC(=O)c4ccnn4C)C4CCCCC4)cc3C2)C(=O)N1 (stereo partly drawn) [Example 209, N-((1S)-1-cyclohexyl-2-((2-((5S)-5-isopropyl-2-oxopyrrolidin-3-yl)-2,3-dihydro-1H-inden-5-yl)amino)-2-oxoethyl)-1-methyl-1H-pyrazole-5-carboxamide]	2180	1060
Cc1nonc1C(=O)N[C@H](C(=O)Nc1ccc2c(c1)CC(c1cn3ncccc3n1)(N1C[C@@H](C(C)C)NC1=O)C2)C(C1CC1)C1CC1 (stereo partly drawn) [Example 246, N-((2S)-1,1-dicyclopropyl-3-((2-(imidazo[1,2-b]pyridazin-2-yl)-2-((R)-4-isopropyl-2-oxoimidazolidin-1-yl)-2,3-dihydro-1H-inden-5-yl)amino)-3-oxopropan-2-yl)-4-methyl-1,2,5-oxadiazole-3-carboxamide]	1220	257
Cc1nonc1C(=O)N[C@H](C(=O)Nc1ccc2c(c1)CC(C(=O)Nc1cccc(F)c1)(N1C[C@@H](C(C)C)NC1=O)C2)C1CCC(F)(F)CC1 (stereo partly drawn) [Example 243, N-((1S)-1-(4,4-difluorocyclohexyl)-2-((2-((3-fluorophenyl)carbamoyl)-2-((R)-4-isopropyl-2-oxoimidazolidin-1-yl)-2,3-dihydro-1H-inden-5-yl)amino)-2-oxoethyl)-4-methyl-1,2,5-oxadiazole-3-carboxamide]	317	290
CC[C@H]1CN(C2(C(=O)NC)Cc3ccc(NC(=O)[C@@H](NC(=O)c4ccnn4C)C4CCCCC4)cc3C2)C(=O)N1 (stereo partly drawn) [Example 18, N-((1S)-1-cyclohexyl-2-((2-((S)-4-ethyl-2-oxoimidazolidin-1-yl)-2-(methylcarbamoyl)-2,3-dihydro-1H-inden-5-yl)amino)-2-oxoethyl)-1-methyl-1H-pyrazole-5-carboxamide]	2550	1000
CNC(=O)C1(N2C[C@@H](Cc3cccs3)NC2=O)Cc2ccc(NC(=O)[C@@H](NC(=O)c3ccnn3C)C3CCCCC3)cc2C1 (stereo partly drawn) [Example 57, N-((1S)-1-cyclohexyl-2-((2-(methylcarbamoyl)-2-((R)-2-oxo-4-(thiophen-2-ylmethyl)imidazolidin-1-yl)-2,3-dihydro-1H-inden-5-yl)amino)-2-oxoethyl)-1-methyl-1H-pyrazole-5-carboxamide]	2150	334
Cc1nonc1C(=O)N[C@H](C(=O)Nc1ccc2c(c1)CC(c1nc3cccc(F)c3[nH]1)(N1CC3(CC3)CNC1=O)C2)C1CCC(F)(F)CC1 (stereo partly drawn) [Example 187, N-((1S)-1-(4,4-difluorocyclohexyl)-2-((2-(7-fluoro-1H-benzo[d]imidazol-2-yl)-2-(6-oxo-5,7-diazaspiro[2.5]octan-5-yl)-2,3-dihydro-1H-inden-5-yl)amino)-2-oxoethyl)-4-methyl-1,2,5-oxadiazole-3-carboxamide]	246	249
Cc1nonc1C(=O)N[C@H](C(=O)Nc1ccc2c(c1)CC(C(O)C(F)(F)F)(N1C[C@@H](C(C)C)NC1=O)C2)C(C1CC1)C1CC1 (stereo partly drawn) [Example 238, N-((2S)-1,1-dicyclopropyl-3-((2-((R)-4-isopropyl-2-oxoimidazolidin-1-yl)-2-(2,2,2-trifluoro-1-hydroxyethyl)-2,3-dihydro-1H-inden-5-yl)amino)-3-oxopropan-2-yl)-4-methyl-1,2,5-oxadiazole-3-carboxamide]	137	222
Cc1nonc1C(=O)N[C@H](C(=O)Nc1ccc2c(c1)CC(C(=O)NC(C1CC1)C1CC1)(N1C[C@@H](C(C)C)NC1=O)C2)C(C1CC1)C1CC1 (stereo partly drawn) [Example 281, N-((2S)-1,1-dicyclopropyl-3-((2-((dicyclopropylmethyl)carbamoyl)-2-((R)-4-isopropyl-2-oxoimidazolidin-1-yl)-2,3-dihydro-1H-inden-5-yl)amino)-3-oxopropan-2-yl)-4-methyl-1,2,5-oxadiazole-3-carboxamide]	67.4	16.5
Cc1nonc1C(=O)N[C@H](C(=O)Nc1ccc2c(c1)CC(C(=O)Nc1cccc(Cl)c1)(N1C[C@@H](C(C)C)NC1=O)C2)C(C1CC1)C1CC1 (stereo partly drawn) [Example 259, N-((2S)-1-((2-((3-chlorophenyl)carbamoyl)-2-((R)-4-isopropyl-2-oxoimidazolidin-1-yl)-2,3-dihydro-1H-inden-5-yl)amino)-3,3-dicyclopropyl-1-oxopropan-2-yl)-4-methyl-1,2,5-oxadiazole-3-carboxamide]	1970	1020
CNC(=O)C1(N2CC(Cc3ccc(C(F)(F)F)cc3)NC2=O)Cc2ccc(NC(=O)[C@@H](NC(=O)c3ccnn3C)C3CCCCC3)cc2C1 (stereo partly drawn) [Example 80, N-((1S)-1-cyclohexyl-2-((2-(methylcarbamoyl)-2-(2-oxo-4-(4-(trifluoromethyl)benzyl)imidazolidin-1-yl)-2,3-dihydro-1H-inden-5-yl)amino)-2-oxoethyl)-1-methyl-1H-pyrazole-5-carboxamide]	971	157
CNC(=O)C1(N2C[C@@H](C(C)C)NS2(=O)=O)Cc2ccc(NC(=O)[C@@H](NC(=O)c3ccnn3C)C3CCCCC3)cc2C1 (stereo partly drawn) [Example 55, N-((1S)-1-cyclohexyl-2-((2-((R)-4-isopropyl-1,1-dioxido-1,2,5-thiadiazolidin-2-yl)-2-(methylcarbamoyl)-2,3-dihydro-1H-inden-5-yl)amino)-2-oxoethyl)-1-methyl-1H-pyrazole-5-carboxamide]	1820	1050
CNC(=O)C1(N2C[C@@H](C(C)C)NC2=O)Cc2ccc(NC(=O)C(NC(=O)c3ccnn3C)C3CCc4cc(Cl)ccc4C3)cc2C1 (stereo partly drawn) [Example 186, N-(1-(6-chloro-1,2,3,4-tetrahydronaphthalen-2-yl)-2-((2-((R)-4-isopropyl-2-oxoimidazolidin-1-yl)-2-(methylcarbamoyl)-2,3-dihydro-1H-inden-5-yl)amino)-2-oxoethyl)-1-methyl-1H-pyrazole-5-carboxamide]	15.1	6.3
CNC(=O)C1(N2CC3(CC3)CNC2=O)Cc2ccc(NC(=O)[C@@H](NC(=O)c3ccnn3C(C)C)C(C3CC3)C3CC3)cc2C1 (stereo partly drawn) [Example 115, N-((2S)-1,1-dicyclopropyl-3-((2-(methylcarbamoyl)-2-(6-oxo-5,7-diazaspiro[2.5]octan-5-yl)-2,3-dihydro-1H-inden-5-yl)amino)-3-oxopropan-2-yl)-1-isopropyl-1H-pyrazole-5-carboxamide]	72.4	258
CC(C)[C@@H]1CN(C2(C(=O)Nc3ccccc3)Cc3ccc(NC(=O)[C@@H](NC(=O)c4ccnn4C)C4CCCCC4)cc3C2)C(=O)N1 (stereo partly drawn) [Example 151, N-((1S)-1-cyclohexyl-2-((2-((R)-4-isopropyl-2-oxoimidazolidin-1-yl)-2-(phenylcarbamoyl)-2,3-dihydro-1H-inden-5-yl)amino)-2-oxoethyl)-1-methyl-1H-pyrazole-5-carboxamide]	99.6	31
COCC1(N2CC3(CC3)CNC2=O)Cc2ccc(NC(=O)[C@@H](NC(=O)c3ccnn3C)C3CCCCC3)cc2C1 (stereo partly drawn) [Example 156, N-((1S)-1-cyclohexyl-2-((2-(methoxymethyl)-2-(6-oxo-5,7-diazaspiro[2.5]octan-5-yl)-2,3-dihydro-1H-inden-5-yl)amino)-2-oxoethyl)-1-methyl-1H-pyrazole-5-carboxamide]	305	68.3
CNC(=O)C1(N2C[C@@H](Cc3ccc(F)cc3)NC2=O)Cc2ccc(NC(=O)[C@@H](NC(=O)c3ccnn3C)C3CCCCC3)cc2C1 (stereo partly drawn) [Example 76, N-((1S)-1-cyclohexyl-2-((2-((R)-4-(4-fluorobenzyl)-2-oxoimidazolidin-1-yl)-2-(methylcarbamoyl)-2,3-dihydro-1H-inden-5-yl)amino)-2-oxoethyl)-1-methyl-1H-pyrazole-5-carboxamide]	736	90
Cc1nonc1C(=O)N[C@H](C(=O)Nc1ccc2c(c1)CC(C(=O)Nc1cccc(Cl)c1)(N1CC3(CC3)CNC1=O)C2)C1CCC(F)(F)CC1 (stereo partly drawn) [Example 220, N-((1S)-2-((2-((3-chlorophenyl)carbamoyl)-2-(6-oxo-5,7-diazaspiro[2.5]octan-5-yl)-2,3-dihydro-1H-inden-5-yl)amino)-1-(4,4-difluorocyclohexyl)-2-oxoethyl)-4-methyl-1,2,5-oxadiazole-3-carboxamide]	80.6	169
